Assay results: PMC12670405, “Second-Generation AURKA-Targeting PROTACs: Structural Optimization toward in Vivo Degradation in Neuroblastoma” (Journal of Medicinal Chemistry, 2025)

Tests used:
Assay in all cases: KINOMEscan scanMAX
Format in all cases: binding
Conditions in all cases: read-out: Percent Control
AXL = target: T1, AXL (Homo sapiens, UniProt P30530)
T1 construct: purchased Eurofins Discovery (DiscoverX KINOMEscan scanMAX)
Method: (§1) The kinome-wide binding assay was performed by Eurofins Discovery using the scanMAX screening platform. More information can be found on the Eurofins Discovery Web site.

BMPR2 = target: T2, BMPR2 (Homo sapiens, UniProt Q13873)
T2 construct: purchased Eurofins Discovery (DiscoverX KINOMEscan scanMAX)
Method: as §1

CDK5 = target: T3, CDK5 (Homo sapiens, UniProt Q00535)
T3 construct: purchased Eurofins Discovery (DiscoverX KINOMEscan scanMAX)
Method: as §1

CHEK1 = target: T4, CHEK1 (Homo sapiens, UniProt O14757)
T4 construct: purchased Eurofins Discovery (DiscoverX KINOMEscan scanMAX)
Method: as §1

CSNK1A1 = target: T5, CSNK1A1 (Homo sapiens, UniProt P48729)
T5 construct: purchased Eurofins Discovery (DiscoverX KINOMEscan scanMAX)
Method: as §1

EPHA5 = target: T6, EPHA5 (Homo sapiens, UniProt P54756)
T6 construct: purchased Eurofins Discovery (DiscoverX KINOMEscan scanMAX)
Method: as §1

GRK4 = target: T7, GRK4 (Homo sapiens, UniProt P32298)
T7 construct: purchased Eurofins Discovery (DiscoverX KINOMEscan scanMAX)
Method: as §1

IKK-epsilon = target: T8, IKK-epsilon (Homo sapiens, UniProt Q14164)
T8 construct: purchased Eurofins Discovery (DiscoverX KINOMEscan scanMAX)
Method: as §1

MAPKAPK5 = target: T9, MAPKAPK5 (Homo sapiens, UniProt Q8IW41)
T9 construct: purchased Eurofins Discovery (DiscoverX KINOMEscan scanMAX)
Method: as §1

MEK4 = target: T10, MEK4 (Homo sapiens, UniProt P45985)
T10 construct: purchased Eurofins Discovery (DiscoverX KINOMEscan scanMAX)
Method: as §1

MKK7 = target: T11, MKK7 (Homo sapiens, UniProt O14733)
T11 construct: purchased Eurofins Discovery (DiscoverX KINOMEscan scanMAX)
Method: as §1

NEK2 = target: T12, NEK2 (Homo sapiens, UniProt P51955)
T12 construct: purchased Eurofins Discovery (DiscoverX KINOMEscan scanMAX)
Method: as §1

PIK3CA = target: T13, PIK3CA (Homo sapiens, UniProt P42336)
T13 construct: purchased Eurofins Discovery (DiscoverX KINOMEscan scanMAX)
Method: as §1

PIK3CB = target: T14, PIK3CB (Homo sapiens, UniProt P42338)
T14 construct: purchased Eurofins Discovery (DiscoverX KINOMEscan scanMAX)
Method: as §1

PIM3 = target: T15, PIM3 (Homo sapiens, UniProt Q86V86)
T15 construct: purchased Eurofins Discovery (DiscoverX KINOMEscan scanMAX)
Method: as §1

PKN1 = target: T16, PKN1 (Homo sapiens, UniProt Q16512)
T16 construct: purchased Eurofins Discovery (DiscoverX KINOMEscan scanMAX)
Method: as §1

SBK1 = target: T17, SBK1 (Homo sapiens, UniProt Q52WX2)
T17 construct: purchased Eurofins Discovery (DiscoverX KINOMEscan scanMAX)
Method: as §1

SGK = target: T18, SGK (Homo sapiens, UniProt O00141)
T18 construct: purchased Eurofins Discovery (DiscoverX KINOMEscan scanMAX)
Method: as §1

TAK1 = target: T19, TAK1 (Homo sapiens, UniProt O43318)
T19 construct: purchased Eurofins Discovery (DiscoverX KINOMEscan scanMAX)
Method: as §1

TAOK2 = target: T20, TAOK2 (Homo sapiens, UniProt Q9UL54)
T20 construct: purchased Eurofins Discovery (DiscoverX KINOMEscan scanMAX)
Method: as §1

TIE2 = target: T21, TIE2 (Homo sapiens, UniProt Q02763)
T21 construct: purchased Eurofins Discovery (DiscoverX KINOMEscan scanMAX)
Method: as §1

p38-delta = target: T22, p38-delta (Homo sapiens, UniProt O15264)
T22 construct: purchased Eurofins Discovery (DiscoverX KINOMEscan scanMAX)
Method: as §1

T12 sequence (P51955 whole entry): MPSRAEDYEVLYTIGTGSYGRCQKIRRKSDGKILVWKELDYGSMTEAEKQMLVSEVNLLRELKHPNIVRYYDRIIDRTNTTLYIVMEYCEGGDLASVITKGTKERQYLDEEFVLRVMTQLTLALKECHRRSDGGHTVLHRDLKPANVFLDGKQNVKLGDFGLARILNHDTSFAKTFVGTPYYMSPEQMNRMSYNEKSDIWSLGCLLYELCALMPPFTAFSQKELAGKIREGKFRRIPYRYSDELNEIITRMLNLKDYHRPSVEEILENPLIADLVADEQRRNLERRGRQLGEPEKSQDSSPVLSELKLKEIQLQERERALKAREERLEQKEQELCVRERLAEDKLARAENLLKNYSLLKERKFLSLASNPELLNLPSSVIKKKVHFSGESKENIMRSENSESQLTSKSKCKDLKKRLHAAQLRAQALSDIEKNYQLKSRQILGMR
T5 sequence (P48729 whole entry): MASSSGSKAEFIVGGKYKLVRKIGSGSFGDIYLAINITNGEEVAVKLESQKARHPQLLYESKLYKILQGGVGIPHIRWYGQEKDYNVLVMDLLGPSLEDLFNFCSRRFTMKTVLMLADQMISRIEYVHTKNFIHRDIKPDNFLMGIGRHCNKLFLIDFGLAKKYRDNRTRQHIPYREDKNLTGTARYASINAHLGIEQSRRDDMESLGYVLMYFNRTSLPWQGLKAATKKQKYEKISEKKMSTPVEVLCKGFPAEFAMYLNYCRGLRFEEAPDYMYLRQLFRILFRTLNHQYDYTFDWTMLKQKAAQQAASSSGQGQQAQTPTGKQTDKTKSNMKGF
T19 sequence (O43318 whole entry): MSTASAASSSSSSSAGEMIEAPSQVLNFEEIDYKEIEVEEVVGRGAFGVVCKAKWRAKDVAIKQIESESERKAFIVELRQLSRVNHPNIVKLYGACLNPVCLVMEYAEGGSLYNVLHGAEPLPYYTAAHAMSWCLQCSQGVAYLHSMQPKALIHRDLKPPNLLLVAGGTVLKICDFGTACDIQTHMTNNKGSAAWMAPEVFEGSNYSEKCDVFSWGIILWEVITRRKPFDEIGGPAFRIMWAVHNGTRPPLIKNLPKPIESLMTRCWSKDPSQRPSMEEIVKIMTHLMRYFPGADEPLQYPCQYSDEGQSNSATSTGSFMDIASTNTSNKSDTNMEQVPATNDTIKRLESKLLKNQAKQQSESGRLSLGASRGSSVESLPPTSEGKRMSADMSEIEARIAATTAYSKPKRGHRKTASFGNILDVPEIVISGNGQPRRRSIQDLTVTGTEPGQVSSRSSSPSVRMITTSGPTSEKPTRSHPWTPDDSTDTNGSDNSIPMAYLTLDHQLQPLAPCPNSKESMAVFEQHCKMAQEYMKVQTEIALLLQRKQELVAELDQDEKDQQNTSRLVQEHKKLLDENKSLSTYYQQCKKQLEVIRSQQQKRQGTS
T6 sequence (P54756 25-1037): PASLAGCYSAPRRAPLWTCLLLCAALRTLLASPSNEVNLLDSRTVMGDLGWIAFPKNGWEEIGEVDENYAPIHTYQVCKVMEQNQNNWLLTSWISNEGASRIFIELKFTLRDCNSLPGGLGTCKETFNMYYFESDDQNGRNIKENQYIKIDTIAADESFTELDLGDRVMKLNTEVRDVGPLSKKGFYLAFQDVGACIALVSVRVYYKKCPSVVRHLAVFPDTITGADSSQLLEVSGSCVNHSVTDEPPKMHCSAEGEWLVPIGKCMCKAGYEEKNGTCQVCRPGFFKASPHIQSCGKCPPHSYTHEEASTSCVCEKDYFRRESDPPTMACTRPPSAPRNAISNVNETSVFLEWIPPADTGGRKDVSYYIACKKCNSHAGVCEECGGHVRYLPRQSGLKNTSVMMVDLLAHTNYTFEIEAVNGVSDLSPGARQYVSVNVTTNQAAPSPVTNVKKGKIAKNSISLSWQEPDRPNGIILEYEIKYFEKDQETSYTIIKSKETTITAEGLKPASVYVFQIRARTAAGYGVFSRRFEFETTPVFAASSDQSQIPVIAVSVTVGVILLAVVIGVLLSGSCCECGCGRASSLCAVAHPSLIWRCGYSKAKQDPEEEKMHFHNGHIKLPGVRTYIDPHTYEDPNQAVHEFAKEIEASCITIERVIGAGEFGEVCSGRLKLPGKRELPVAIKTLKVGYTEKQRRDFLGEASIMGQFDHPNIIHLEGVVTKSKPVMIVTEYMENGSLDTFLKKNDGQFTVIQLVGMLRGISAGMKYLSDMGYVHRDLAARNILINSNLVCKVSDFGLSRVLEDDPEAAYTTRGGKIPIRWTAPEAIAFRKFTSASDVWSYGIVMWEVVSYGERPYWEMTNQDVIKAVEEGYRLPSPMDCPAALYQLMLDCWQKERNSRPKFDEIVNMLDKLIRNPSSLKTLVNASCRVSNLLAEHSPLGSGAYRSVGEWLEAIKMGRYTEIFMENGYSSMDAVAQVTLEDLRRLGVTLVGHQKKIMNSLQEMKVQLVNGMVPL
T11 sequence (O14733 whole entry): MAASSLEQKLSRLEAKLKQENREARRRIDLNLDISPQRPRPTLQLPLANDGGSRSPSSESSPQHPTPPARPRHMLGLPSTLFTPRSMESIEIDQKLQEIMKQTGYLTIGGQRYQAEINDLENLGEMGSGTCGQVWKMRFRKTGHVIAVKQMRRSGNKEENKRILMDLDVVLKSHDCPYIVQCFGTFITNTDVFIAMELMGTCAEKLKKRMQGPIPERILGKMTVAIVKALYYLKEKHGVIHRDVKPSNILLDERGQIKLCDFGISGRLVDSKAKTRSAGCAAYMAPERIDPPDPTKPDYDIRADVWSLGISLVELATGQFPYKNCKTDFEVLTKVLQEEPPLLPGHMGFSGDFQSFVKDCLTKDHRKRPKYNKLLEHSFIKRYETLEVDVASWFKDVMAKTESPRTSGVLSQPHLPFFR
T1 sequence (P30530 26-894): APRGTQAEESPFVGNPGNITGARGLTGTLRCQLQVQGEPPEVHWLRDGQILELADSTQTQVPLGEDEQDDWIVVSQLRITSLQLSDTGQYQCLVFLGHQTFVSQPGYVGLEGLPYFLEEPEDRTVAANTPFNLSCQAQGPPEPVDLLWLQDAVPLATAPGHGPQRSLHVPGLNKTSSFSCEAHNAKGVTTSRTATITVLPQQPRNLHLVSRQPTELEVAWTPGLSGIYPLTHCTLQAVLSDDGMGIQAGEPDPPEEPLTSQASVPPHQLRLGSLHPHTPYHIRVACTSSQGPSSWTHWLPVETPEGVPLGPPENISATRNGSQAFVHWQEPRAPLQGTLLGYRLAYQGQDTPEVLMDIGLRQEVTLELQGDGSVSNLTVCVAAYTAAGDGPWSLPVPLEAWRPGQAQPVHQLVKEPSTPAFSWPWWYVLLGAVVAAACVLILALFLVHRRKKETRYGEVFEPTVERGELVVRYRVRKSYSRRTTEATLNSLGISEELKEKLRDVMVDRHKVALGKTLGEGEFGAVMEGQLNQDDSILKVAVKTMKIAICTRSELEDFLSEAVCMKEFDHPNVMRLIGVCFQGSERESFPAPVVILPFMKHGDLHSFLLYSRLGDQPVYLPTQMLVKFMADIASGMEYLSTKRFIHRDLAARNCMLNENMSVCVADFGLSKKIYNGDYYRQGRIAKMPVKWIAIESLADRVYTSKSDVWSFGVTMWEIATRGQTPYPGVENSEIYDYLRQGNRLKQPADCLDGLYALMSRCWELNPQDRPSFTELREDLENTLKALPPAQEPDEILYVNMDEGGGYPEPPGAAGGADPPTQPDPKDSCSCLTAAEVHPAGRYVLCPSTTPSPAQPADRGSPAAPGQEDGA
T20 sequence (Q9UL54 whole entry): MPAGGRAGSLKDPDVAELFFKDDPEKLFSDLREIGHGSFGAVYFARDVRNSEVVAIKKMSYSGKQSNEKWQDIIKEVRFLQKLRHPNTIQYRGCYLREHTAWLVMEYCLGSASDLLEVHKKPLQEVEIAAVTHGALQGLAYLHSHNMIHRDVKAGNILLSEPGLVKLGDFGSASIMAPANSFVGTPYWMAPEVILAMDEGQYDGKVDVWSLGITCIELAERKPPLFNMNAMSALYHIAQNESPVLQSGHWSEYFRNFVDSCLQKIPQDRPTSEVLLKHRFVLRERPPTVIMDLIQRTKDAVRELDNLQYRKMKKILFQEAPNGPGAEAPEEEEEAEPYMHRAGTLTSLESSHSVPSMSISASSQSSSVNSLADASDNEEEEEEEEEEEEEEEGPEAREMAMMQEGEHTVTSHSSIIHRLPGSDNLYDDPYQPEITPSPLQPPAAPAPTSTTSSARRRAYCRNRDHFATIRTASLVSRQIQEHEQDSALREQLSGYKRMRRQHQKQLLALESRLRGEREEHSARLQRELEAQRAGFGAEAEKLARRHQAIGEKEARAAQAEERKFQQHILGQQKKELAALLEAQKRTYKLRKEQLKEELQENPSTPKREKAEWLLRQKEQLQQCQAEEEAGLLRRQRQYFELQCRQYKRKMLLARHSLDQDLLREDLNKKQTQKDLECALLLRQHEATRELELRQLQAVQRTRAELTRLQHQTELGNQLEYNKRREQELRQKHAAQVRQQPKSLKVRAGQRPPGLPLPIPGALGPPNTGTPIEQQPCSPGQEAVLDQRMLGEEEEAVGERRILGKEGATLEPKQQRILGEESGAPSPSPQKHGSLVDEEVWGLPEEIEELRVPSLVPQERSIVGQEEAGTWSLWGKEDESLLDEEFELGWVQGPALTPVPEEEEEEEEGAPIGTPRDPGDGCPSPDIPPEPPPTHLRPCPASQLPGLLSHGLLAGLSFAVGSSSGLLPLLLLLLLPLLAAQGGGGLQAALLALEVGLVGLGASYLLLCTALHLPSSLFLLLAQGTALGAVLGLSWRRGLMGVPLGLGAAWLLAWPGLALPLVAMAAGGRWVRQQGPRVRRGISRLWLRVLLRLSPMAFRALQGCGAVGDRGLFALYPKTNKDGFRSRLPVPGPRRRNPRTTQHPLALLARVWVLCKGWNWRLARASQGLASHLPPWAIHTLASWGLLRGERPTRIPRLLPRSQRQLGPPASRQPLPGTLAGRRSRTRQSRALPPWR

Cc1cc(Nc2ccc(F)c(CC3(C(=O)N4CCC(F)(CN5CCN(c6ccc(N7CCC(=O)NC7=O)cn6)CC5)CC4)CCN(Cc4cccc(Cl)c4F)CC3)n2)n[nH]1 [SK5527]
remaining binding at 0.1 µM (AXL; 100 nM): 36%
remaining binding at 1 µM (AXL; 1000 nM): 3.3%
remaining binding at 0.1 µM (BMPR2; 100 nM): 98%
remaining binding at 1 µM (BMPR2; 1000 nM): 50%
remaining binding at 0.1 µM (CDK5; 100 nM): 100%
remaining binding at 1 µM (CDK5; 1000 nM): 100%
remaining binding at 0.1 µM (CHEK1; 100 nM): 100%
remaining binding at 1 µM (CHEK1; 1000 nM): 100%
remaining binding at 0.1 µM (CSNK1A1; 100 nM): 100%
remaining binding at 1 µM (CSNK1A1; 1000 nM): 100%
remaining binding at 0.1 µM (EPHA5; 100 nM): 100%
remaining binding at 1 µM (EPHA5; 1000 nM): 93%
remaining binding at 0.1 µM (GRK4; 100 nM): 96%
remaining binding at 1 µM (GRK4; 1000 nM): 100%
remaining binding at 0.1 µM (IKK-epsilon; 100 nM): 75%
remaining binding at 1 µM (IKK-epsilon; 1000 nM): 67%
remaining binding at 0.1 µM (MAPKAPK5; 100 nM): 85%
remaining binding at 1 µM (MAPKAPK5; 1000 nM): 74%
remaining binding at 0.1 µM (MEK4; 100 nM): 94%
remaining binding at 1 µM (MEK4; 1000 nM): 73%
remaining binding at 0.1 µM (MKK7; 100 nM): 100%
remaining binding at 1 µM (MKK7; 1000 nM): 54%
remaining binding at 0.1 µM (NEK2; 100 nM): 90%
remaining binding at 1 µM (NEK2; 1000 nM): 91%
remaining binding at 0.1 µM (PIK3CA; 100 nM): 94%
remaining binding at 1 µM (PIK3CA; 1000 nM): 90%
remaining binding at 0.1 µM (PIK3CB; 100 nM): 78%
remaining binding at 1 µM (PIK3CB; 1000 nM): 95%
remaining binding at 0.1 µM (PIM3; 100 nM): 100%
remaining binding at 1 µM (PIM3; 1000 nM): 100%
remaining binding at 0.1 µM (PKN1; 100 nM): 100%
remaining binding at 1 µM (PKN1; 1000 nM): 89%
remaining binding at 0.1 µM (SBK1; 100 nM): 86%
remaining binding at 1 µM (SBK1; 1000 nM): 64%
remaining binding at 0.1 µM (SGK; 100 nM): 93%
remaining binding at 1 µM (SGK; 1000 nM): 68%
remaining binding at 0.1 µM (TAK1; 100 nM): 74%
remaining binding at 1 µM (TAK1; 1000 nM): 100%
remaining binding at 0.1 µM (TAOK2; 100 nM): 100%
remaining binding at 1 µM (TAOK2; 1000 nM): 100%
remaining binding at 0.1 µM (TIE2; 100 nM): 100%
remaining binding at 1 µM (TIE2; 1000 nM): 100%
remaining binding at 0.1 µM (p38-delta; 100 nM): 100%
remaining binding at 1 µM (p38-delta; 1000 nM): 100%
